The assay relates to maltase. Kind of assay: GOD-PAP glucose release assay, Lineweaver-Burk plot. Type of assay: biochemical, Bacillus licheniformis. The conditions noted are these: free (soluble) enzyme, partially purified; maltose 2.5-50 mM; pH and temperature of the kinetics not stated.

For `OC[C@H]1O[C@H](O[C@H]2[C@H](O)[C@@H](O)C(O)O[C@@H]2CO)[C@H](O)[C@@H](O)[C@@H]1O` (stereo partly shown) [maltose], the Km worked out at 1.71 mM ml^−1.

(Values after publication PMC5669356, “Continuous degradation of maltose by enzyme entrapment technology using calcium alginate beads as a matrix” (Biochemistry and Biophysics Reports, 2015).)
